The record followed here is US8471063B2, “Michael systems as transglutaminase inhibitors” (Zedira GmbH, priority 2006, dated 2013).

Where a SMILES comes first, the peptide text is derived from it. [ ]: non-standard residue; d: D form. The star is where a group is joined. Nle(5E-ene,6-CO2Et) = CCOC(=O)/C=C/CC[C@H](N)C(=O)O; Cbz = O=C(OCc1ccccc1)* Some results are limits rather than exact numbers.

Assay [1] has as its target T1, recombinant human tissue transglutaminase (His6-rh-TG2) (Homo sapiens, UniProt P21980).
T1 sequence (P21980 1-687): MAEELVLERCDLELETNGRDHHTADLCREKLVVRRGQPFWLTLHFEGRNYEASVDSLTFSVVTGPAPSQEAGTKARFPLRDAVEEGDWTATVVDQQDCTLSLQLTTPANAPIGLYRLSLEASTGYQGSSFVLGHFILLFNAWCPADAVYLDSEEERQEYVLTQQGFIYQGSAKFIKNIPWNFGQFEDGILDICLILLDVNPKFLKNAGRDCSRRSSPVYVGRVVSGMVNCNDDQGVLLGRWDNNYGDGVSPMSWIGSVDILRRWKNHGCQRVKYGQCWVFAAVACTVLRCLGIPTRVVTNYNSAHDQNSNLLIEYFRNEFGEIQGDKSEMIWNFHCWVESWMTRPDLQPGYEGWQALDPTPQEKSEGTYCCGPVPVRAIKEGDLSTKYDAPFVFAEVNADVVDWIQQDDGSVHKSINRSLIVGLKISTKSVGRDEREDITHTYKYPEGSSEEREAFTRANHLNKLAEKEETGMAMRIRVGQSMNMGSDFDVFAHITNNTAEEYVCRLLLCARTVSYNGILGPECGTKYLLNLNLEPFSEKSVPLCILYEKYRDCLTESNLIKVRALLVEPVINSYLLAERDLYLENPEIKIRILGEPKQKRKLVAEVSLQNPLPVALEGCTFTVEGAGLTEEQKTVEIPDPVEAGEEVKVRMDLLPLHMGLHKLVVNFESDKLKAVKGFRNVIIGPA
The assay is described as follows: Inactivation of human tissue transglutaminase, fluorescence assay, IC50. It is filed as biochemical. As to conditions: Table 1; 5 min preincubation, 37° C. The gist of the method: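 10 μg His6-rh-TG2 added to a pH 7.5 Tris/CaCl2/DTT/PEG8000 assay solution holding inhibitor, 5.56 mM glycine methyl ester and 50 μM Abz-APE(CAD-DNP)QEA-OH (pre-addition levels); 5 min at 37 °C before reading. Fluorescence λexc 313/λem 418 nm over 15 min; activity from slope, IC50 relative to DMSO control.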

For assay [2], the system named is biopsies from the lower duodenum of patients suffering from coeliac disease. The experiment in a line: Biopsy example 2: interferon-γ ELISA of PT gliadin stimulated duodenal biopsies. As to conditions: 5 μM inhibitor preincubation, PT gliadin stimulation. Type of assay: cell-based, human. How it is done:
(§1) Biopsies with a diameter of about 2 mm were stored for a maximum of 30 min in ice-cold PBS after removal from the lower duodenum of patients suffering from coeliac disease. The single biopsies were transferred into the cavities of a 24-well cell culture dish and coated with 500 μl of Trowell T8 medium.
For preincubation, the transglutaminase inhibitor (1) in a final concentration of 5 μM was added to the biopsies and they were incubated for 30 min at a temperature of 37° C. in the incubator under gassing with CO2 (5%). Subsequently, stimulation with gliadin after peptic-tryptic digest (PT gliadin) used in a final concentration of 1 mg/ml was performed. PT gliadin was produced as described by Wieser and Belitz (Wieser H and Belitz HD (1992), Z Lebenm Unters Forsch 194: 229-234). The treatment with the proteases pepsin and trypsin simulates the digestion in the gastrointestinal tract. […]
Biopsies were cultivated and treated as described in biopsy example 1. After 24 and 48 hrs, 50 μl samples were taken both from the biopsy stimulated with PT gliadin and from the biopsy preincubated with inhibitor (1), which subsequently was also stimulated with PT gliadin and the samples were analyzed by means of an interferon-γ Elisa. A very high interferon-γ value of 653 pg/ml could already be measured in the biopsy stimulated with PT gliadin after 24 hrs, which value increased to 1177 pg/ml after 48 hrs.
On the technique in general: In an ELISA, binding on a coated surface is turned into a signal by an enzyme label.

The next assay deals with T2, FXIII (Homo sapiens, UniProt P00488).
T2 sequence (P00488 1-732): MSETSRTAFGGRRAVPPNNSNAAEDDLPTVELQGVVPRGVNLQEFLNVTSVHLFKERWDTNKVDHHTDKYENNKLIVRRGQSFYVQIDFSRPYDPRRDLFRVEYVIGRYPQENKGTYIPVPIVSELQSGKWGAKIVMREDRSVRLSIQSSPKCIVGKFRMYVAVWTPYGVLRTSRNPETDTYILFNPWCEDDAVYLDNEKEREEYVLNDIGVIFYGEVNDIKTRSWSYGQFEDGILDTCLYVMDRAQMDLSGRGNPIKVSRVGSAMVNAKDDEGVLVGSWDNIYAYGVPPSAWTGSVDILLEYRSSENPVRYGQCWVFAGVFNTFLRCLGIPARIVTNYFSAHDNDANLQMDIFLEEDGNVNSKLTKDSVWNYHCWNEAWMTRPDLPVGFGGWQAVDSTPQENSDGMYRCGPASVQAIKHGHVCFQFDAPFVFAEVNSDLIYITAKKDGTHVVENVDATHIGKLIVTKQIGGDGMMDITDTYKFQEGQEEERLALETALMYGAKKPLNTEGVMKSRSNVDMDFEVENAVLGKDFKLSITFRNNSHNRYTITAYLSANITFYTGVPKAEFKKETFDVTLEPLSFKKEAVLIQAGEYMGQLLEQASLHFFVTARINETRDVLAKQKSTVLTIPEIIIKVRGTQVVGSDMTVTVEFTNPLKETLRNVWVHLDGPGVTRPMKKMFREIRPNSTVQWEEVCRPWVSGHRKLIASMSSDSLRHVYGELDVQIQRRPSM
The assay is described as follows: Transglutaminase inhibition, IC50 at FXIII. It is filed as biochemical. As to conditions: Table 1.

Assay [3] deals with biopsies from the lower duodenum of patients suffering from coeliac disease. The assay is described as follows: Biopsy example 1: anti-TG2 ELISA of PT gliadin stimulated duodenal biopsies. Type of assay: cell-based, human. The conditions noted are these: 5 μM inhibitor, 30 min preincubation, then PT gliadin 1 mg/ml, 48 hrs; medium control 1.285, PT gliadin alone 2.144. How it is done: as §1
For preincubation, the transglutaminase inhibitor (1) in a final concentration of 5 μM was added to the biopsies and they were incubated for 30 min at a temperature of 37° C. in the incubator under gassing with CO2 (5%). Subsequently, stimulation with gliadin after peptic-tryptic digest (PT gliadin) used in a final concentration of 1 mg/ml was performed. PT gliadin was produced as described by Wieser and Belitz (Wieser H and Belitz HD (1992), Z Lebenm Unters Forsch 194: 229-234). The treatment with the proteases pepsin and trypsin simulates the digestion in the gastrointestinal tract. Thus the resulting gliadin peptides correspond to those which occur in the duodenum after the intake of cereal protein. The biopsies were then incubated for another 48 hrs in the incubator under the above conditions.
Controls were incubated with inhibitor-free medium and without or respectively with PT gliadin.
After 48 hrs, 50 μl samples were taken and analyzed by means of an anti-TG2 ELISA kit.

For another assay, the system named is dog (Irish setter). The experiment in a line: In-vivo experiment in the Irish setter fed a wheat-containing diet. Here is the method:
A 5 weeks old dog (Irish setter) was fed with a wheat-containing diet. […] By a jejunal biopsy a partial degradation of the intestinal villi and an increased number of intraepithelial lymphocytes were found.
This dog was fed before each meal with 75 mg/kg body weight transglutaminase inhibitor (1) in a acid-stable formulation. In the following a decrease of the diarrhea and an increase in body weight were observed.

[4] abbreviates: 75 mg/kg before each meal, after two months.
[5] abbreviates: 75 mg/kg body weight before each meal, acid-stable formulation.

In the case of `CCOC(=O)/C=C/CC[C@H](NC(=O)OCc1ccccc1)C(=O)N[C@H](C(=O)N1CCC[C@H]1C(=O)N[C@@H](CC(C)C)C(=O)OC)C(C)C` [Compound 1, N^α-benzyloxycarbonyl-{[(E)-(L)-6-amino-hept-2-ene-dicarboxylic acid]-1-ethanoyl}-L-valinyl-L-prolinyl-L-leucine methyl ester] (Cbz-[Nle(5E-ene,6-CO2Et)]VPL-OMe), in assay [1], the IC50 – broadly, the concentration that inhibits the measured activity by half – was determined as 30 nM. Besides, the interferon-γ value in assay [2] (after 24 hrs, PT gliadin alone 653 pg/ml) came out at 86 pg/mL. The compound further displayed an interferon-γ value in assay [2] (after 48 hrs, PT gliadin alone 1177 pg/ml) of 426 pg/mL. The compound also gave an IC50 against FXIII greater than 50000 nM. Besides, in assay [3], the “OD450 in the anti-TG2 ELISA (antibody concentration)” value came to 1.401. In addition, in the assay on dog (Irish setter) (setting [4]), the “length of the intestinal villi (biopsy)” value was “normal length” and the “number of intraepithelial lymphocytes (biopsy)” value is recorded as “significantly reduced”. In the assay with dog (Irish setter) (setting [5]), the body weight entry is given as “increase” and the diarrhea result is recorded as “decrease”.
